This experiment deals with P388 leukemia ip, CD2F1 mice, survival T/C. Nature of the experiment: NCI In Vivo Anticancer Drug Screen. Data for tumor model P388 Leukemia (intraperitoneal) in CD2F1 (CDF1) mice. The settings on record: endpoint: median survival time, higher = longer survival. The method, then:
The antitumor activity of compounds was measured in mice bearing transplantable tumors. Survival or tumor size were measured and the results are expressed as the measurement made in the treated group (T) divided by the measurement made in the vehicle treated control group (C). The tumor model used in this assay is P388 Leukemia (intraperitoneal) in CD2F1 (CDF1) mice

Setting [1] is: dose: 12.5 mg/kg/injection, schedule: Q01DX009 (ip), vehicle: saline.
Where [2] appears, read: dose: 50.0 mg/kg/injection, schedule: Q01DX009 (ip), vehicle: saline with Tween-80.
[3] abbreviates: dose: 100.0 mg/kg/injection, schedule: Q01DX009 (ip), vehicle: saline with Tween-80.
Setting [4] is: dose: 200.0 mg/kg/injection, schedule: Q01DX009 (ip), vehicle: saline with Tween-80.
Setting [5] is: dose: 400.0 mg/kg/injection, schedule: Q01DX009 (ip), vehicle: saline with Tween-80.
[6] abbreviates: dose: 6.25 mg/kg/injection, schedule: Q01DX001 (ip), vehicle: saline.
Setting [7] is: dose: 50.0 mg/kg/injection, schedule: Q01DX009 (ip), vehicle: saline.
Where [8] appears, read: dose: 50.0 mg/kg/injection, schedule: Q01DX005 (ip), vehicle: Klucel (hydroxypropylcellulose) (HPC).
[9] abbreviates: dose: 100.0 mg/kg/injection, schedule: Q01DX005 (ip), vehicle: Klucel (hydroxypropylcellulose) (HPC).
[10] abbreviates: dose: 200.0 mg/kg/injection, schedule: Q01DX005 (ip), vehicle: Klucel (hydroxypropylcellulose) (HPC).
[11] abbreviates: dose: 50.0 mg/kg/injection, schedule: Q04DX003 (ip), vehicle: saline with Tween-80.
Where [12] appears, read: dose: 100.0 mg/kg/injection, schedule: Q04DX003 (ip), vehicle: saline with Tween-80.
Setting [13] is: dose: 200.0 mg/kg/injection, schedule: Q04DX003 (ip), vehicle: saline with Tween-80.
The mark [14] stands for this setting: dose: 100.0 mg/kg/injection, schedule: Q01DX001 (ip), vehicle: saline with Tween-80.
[15] abbreviates: dose: 200.0 mg/kg/injection, schedule: Q01DX001 (ip), vehicle: saline with Tween-80.
The mark [16] stands for this setting: dose: 400.0 mg/kg/injection, schedule: Q01DX001 (ip), vehicle: saline with Tween-80.

Values joined by “and” are separate entries in the source; they are usually repeats but may differ in a detail not shown here. Identical values can stand only once. Inconclusive results and toxic doses are left out.

In the case of `COc1ccc(/C=N/Nc2nnc3c4ccccc4c4ccccc4c3n2)cc1`, the T/C (dose: 50.0 mg/kg/injection, schedule: Q04DX003 (ip), vehicle: saline) was 89 % of control; the T/C (dose: 100.0 mg/kg/injection, schedule: Q04DX003 (ip), vehicle: saline) is 93 % of control; the T/C (dose: 200.0 mg/kg/injection, schedule: Q04DX003 (ip), vehicle: saline) is 92 % of control.

For the molecule `CC(C)[CH2][Pb]([CH2]C(C)C)([CH2]C(C)C)[n]1ccnc1`, the T/C (dose: 3.12 mg/kg/injection, schedule: Q01DX009 (ip), vehicle: saline) is 101 % of control; the T/C (dose: 6.25 mg/kg/injection, schedule: Q01DX009 (ip), vehicle: saline) is 108 % of control; the T/C under setting [1] was 111 % of control.

For the molecule `CC#CC(=O)OC`, the T/C is, setting by setting: under setting [2], 94 % of control; under setting [3], 101 % of control; under setting [4], 98 % of control; under setting [5], 98 % of control.

Consider `BrCCC[n+]1ccc2ccccc2c1-c1nccc2ccccc12`, for which the T/C was 104 % of control (dose: 3.12 mg/kg/injection, schedule: Q01DX001 (ip), vehicle: saline); 98 % of control under setting [6]; 101 % of control and 115 % of control (dose: 12.5 mg/kg/injection, schedule: Q01DX001 (ip), vehicle: saline).

Turning to `COCC(CN1CCN(c2ccccc2OC)CC1)OC` (centres undefined), the T/C is 97 % of control under setting [1]; 98 % of control (dose: 25.0 mg/kg/injection, schedule: Q01DX009 (ip), vehicle: saline); 90 % of control under setting [7].

Take `C=C1C(=O)OC2/C=C(\C)C3OC3/C=C(/C(=O)OC)C(OC(C)=O)C(OC(=O)C(C)(O)C(C)OC(C)=O)C12` (centres undefined): the T/C was 114 % of control (dose: 1.5 mg/kg/injection, schedule: Q01DX009 (ip), vehicle: Klucel (hydroxypropylcellulose) (HPC)) and 106 % of control (dose: 12.0 mg/kg/injection, schedule: Q01DX009 (ip), vehicle: Klucel (hydroxypropylcellulose) (HPC)).

In the case of `CCOC(=O)NC(C(=O)N(C(=O)NC1CCCCC1)C1CCCCC1)C(C)C` (centres undefined), the T/C is 100 % of control under setting [8], 95 % of control under setting [9] and 90 % of control under setting [10].

Regarding `O=C(O)c1ccc(NC(=O)C(Cl)Cl)cc1`, the T/C under setting [8] is 97 % of control, the T/C under setting [9] was 102 % of control and the T/C under setting [10] is 100 % of control.

For `CC(/C=C/c1cccc(C)c1)=N\NC(N)=S`, the T/C was 106 % of control (dose: 3.75 mg/kg/injection, schedule: Q01DX005 (ip), vehicle: Klucel (hydroxypropylcellulose) (HPC)); 105 % of control (dose: 7.5 mg/kg/injection, schedule: Q01DX005 (ip), vehicle: Klucel (hydroxypropylcellulose) (HPC)); 122 % of control (dose: 30.0 mg/kg/injection, schedule: Q01DX005 (ip), vehicle: Klucel (hydroxypropylcellulose) (HPC)).

For `CCC(=O)NC1=C(Cl)C(=O)C(Cl)=C(Cl)C1=O`, the T/C (dose: 3.13 mg/kg/injection, schedule: Q01DX009 (ip), vehicle: saline with Tween-80) was 111 % of control and the T/C (dose: 6.25 mg/kg/injection, schedule: Q01DX009 (ip), vehicle: saline with Tween-80) is 103 % of control.

Take `CC(C)CC(C)NC(=O)Nc1ccc(Cc2ccc(NC(=O)NC(C)CC(C)C)cc2)cc1` (centres undefined): the T/C runs as follows: (dose: 50.0 mg/kg/injection, schedule: Q01DX009 (ip), vehicle: Klucel (hydroxypropylcellulose) (HPC)) 96 % of control; (dose: 100.0 mg/kg/injection, schedule: Q01DX009 (ip), vehicle: Klucel (hydroxypropylcellulose) (HPC)) 97 % of control; (dose: 200.0 mg/kg/injection, schedule: Q01DX009 (ip), vehicle: Klucel (hydroxypropylcellulose) (HPC)) 93 % of control.

As for `Nc1nc(=S)c2[nH]c(=S)[nH]c2[nH]1`, the T/C was 118 % of control (dose: 25.0 mg/kg/injection, schedule: Q04DX003 (ip), vehicle: saline with Tween-80); 118 % of control under setting [11]; 118 % of control under setting [3]; 118 % of control under setting [12]; 150 % of control (dose: 264.0 mg/kg/injection, schedule: Q04DX003 (ip), vehicle: saline with Tween-80); 113 % of control under setting [5]. Moreover, for the setting “dose: 600.0 mg/kg/injection, schedule: Q04DX003 (ip), vehicle: saline with Tween-80”, the T/C is 150 % of control.

As to `CN(C)c1ccc([N+](C)(C)Cc2ccc(C[N+](C)(C)c3ccc([N+](C)(C)Cc4ccc(CCl)cc4)cc3)cc2)cc1`, the T/C is, setting by setting: (dose: 3.13 mg/kg/injection, schedule: Q01DX001 (ip), vehicle: saline) 108 % of control; under setting [6], 112 % of control and 97 % of control.

Turning to `NNC(=O)CCc1ccccc1Br`, the T/C is 100 % of control and 90 % of control under setting [2]; 104 % of control under setting [11]; 100 % of control under setting [3]; 90 % of control under setting [12]; 95 % of control under setting [4]; 90 % of control under setting [13].

As to `CCN(CCO)CCc1cccc2ccccc12`, the T/C by setting is: under setting [8], 104 % of control; under setting [9], 99 % of control.

For the molecule `O=C(c1ccccc1)C1C(c2ccccc2)C2(CCCCC2=O)C(c2ccccc2)CC1(O)c1ccccc1` (centres undefined), the T/C was 98 % of control (dose: 3.12 mg/kg/injection, schedule: Q01DX001 (ip), vehicle: Klucel (hydroxypropylcellulose) (HPC)); 86 % of control (dose: 6.25 mg/kg/injection, schedule: Q01DX001 (ip), vehicle: Klucel (hydroxypropylcellulose) (HPC)); 86 % of control (dose: 12.5 mg/kg/injection, schedule: Q01DX001 (ip), vehicle: Klucel (hydroxypropylcellulose) (HPC)); 86 % of control (dose: 25.0 mg/kg/injection, schedule: Q01DX001 (ip), vehicle: Klucel (hydroxypropylcellulose) (HPC)).

On to `O=C(Nc1ccc(Nc2ccc3c(c2)C(=O)c2ccccc2C3=O)c2c1C(=O)c1ccccc1C2=O)c1ccccc1`, for which the T/C runs as follows: under setting [8], 92 % of control; under setting [9], 91 % of control; under setting [10], 88 % of control.

On to `COC(=O)C(Br)c1cccc(OC)c1` (centres undefined), for which the T/C was 100 % of control (dose: 132.0 mg/kg/injection, schedule: Q04DX003 (ip), vehicle: saline with Tween-80); 100 % of control (dose: 178.0 mg/kg/injection, schedule: Q01DX009 (ip), vehicle: saline with Tween-80); 100 % of control under setting [13]; 100 % of control (dose: 266.0 mg/kg/injection, schedule: Q01DX009 (ip), vehicle: saline with Tween-80); 100 % of control (dose: 300.0 mg/kg/injection, schedule: Q04DX003 (ip), vehicle: saline with Tween-80); 100 % of control under setting [5].

For the molecule `Cc1c(Br)sc2ccc3ccccc3c12`, the T/C is 103 % of control under setting [14], 106 % of control under setting [15] and 103 % of control under setting [16].

Regarding `CCc1cccc(CC)c1N1C(=O)C2=C(SCCCS2)C1=O`, the T/C was 98 % of control under setting [7]; 102 % of control (dose: 100.0 mg/kg/injection, schedule: Q01DX009 (ip), vehicle: saline); 107 % of control (dose: 200.0 mg/kg/injection, schedule: Q01DX009 (ip), vehicle: saline).

As for `COc1ccc(Cc2coc3cc(OC)cc(OC)c3c2=O)cc1`, the T/C was 98 % of control (dose: 60.0 mg/kg/injection, schedule: Q01DX005 (ip), vehicle: saline with Tween-80); 97 % of control (dose: 120.0 mg/kg/injection, schedule: Q01DX005 (ip), vehicle: saline with Tween-80); 94 % of control (dose: 240.0 mg/kg/injection, schedule: Q01DX005 (ip), vehicle: saline with Tween-80).

With `Nc1cc(Cl)c2[nH]c(-c3ccccc3)nc2n1`, the T/C (dose: 50.0 mg/kg/injection, schedule: Q01DX001 (ip), vehicle: saline with Tween-80) was 96 % of control and the T/C under setting [14] was 94 % of control.

For the molecule `NC(N)=Nc1nc2ccccc2s1`, the T/C is, setting by setting: (dose: 12.5 mg/kg/injection, schedule: Q01DX009 (ip), vehicle: saline sonified) 100 % of control; (dose: 25.0 mg/kg/injection, schedule: Q01DX009 (ip), vehicle: saline sonified) 100 % of control; (dose: 50.0 mg/kg/injection, schedule: Q01DX009 (ip), vehicle: saline sonified) 100 % of control.

As for `CC(C)C1=CCC2C(=C1)CCC1C(C)(C(N)=O)CCCC21C` (centres undefined), the T/C is 100 % of control under setting [14], 100 % of control under setting [15] and 100 % of control under setting [16].

The values are drawn from PubChem BioAssay AID330 (DTP/NCI, 2004).
